Test results taken from patent publication US10087165B2, “Fluoroquinolones and use thereof to treat bacterial infections” (UNIVERSITÉ PIERRE ET MARIE CURIE—PARIS 6 (UPMC), priority 2014, dated 2018).
In brackets after ≈: the same amount, converted by molar mass. Read-outs that look alike come from different tables or passages of the source.

What was measured:
[1] = system: M. tuberculosis H37Rv strain; test: Minimal effective dosage in the murine TB model; type: in vivo, Balb/C/J female mice; parameters: Mice weight: unit not given here; conditions: for Survival: No. death: 10 mice
Experimental: Four-week-old Balb/C/J female mice were infected intravenously with 10^6 CFU of M. tuberculosis H37Rv strain. On the day following the infection (D1), 10 mice were sacrificed to determine the exact baseline values of spleen weight and CFU counts in the lungs. The remaining mice were allocated to the following treatment groups: an untreated negative control group for survival monitoring, a positive control group treated for 1 month with isoniazid (INH) 25 mg/kg/d, […] test groups were treated with Quin18 and Quin19 at increasing dosages (25 mg/kg/d; 50 mg/kg/d; 100 mg/kg/d; 150 mg/kg/d) given by oral gavage, and two additional test groups were treated intravenously with Quin18 25 mg/kg/d and 100 mg/kg/d. All the groups contained 10 mice and were treated from D1 to D28, 5 days a week. The parameters used for assessing the severity of infection and the effectiveness of treatments were survival rate, spleen weight, gross lung lesions and CFU counts in the lungs.
The minimal effective dosage was defined as the minimal dosage able to prevent mortality of the mice, spleen enlargement and the occurrence of gross lung lesions. CFU counts were considered to be a more precise way of determining the dose-ranging efficacy of Quin18 and Quin19.
Survival rates between groups were plotted on a Kaplan-Meier curve and compared using the log-rank test.

[2] = molecular target: M. tuberculosis DNA gyrase (Mycobacterium tuberculosis, UniProt P9WG45+P9WG47); test: biochemical
Chain of M. tuberculosis DNA gyrase (P9WG47 whole entry): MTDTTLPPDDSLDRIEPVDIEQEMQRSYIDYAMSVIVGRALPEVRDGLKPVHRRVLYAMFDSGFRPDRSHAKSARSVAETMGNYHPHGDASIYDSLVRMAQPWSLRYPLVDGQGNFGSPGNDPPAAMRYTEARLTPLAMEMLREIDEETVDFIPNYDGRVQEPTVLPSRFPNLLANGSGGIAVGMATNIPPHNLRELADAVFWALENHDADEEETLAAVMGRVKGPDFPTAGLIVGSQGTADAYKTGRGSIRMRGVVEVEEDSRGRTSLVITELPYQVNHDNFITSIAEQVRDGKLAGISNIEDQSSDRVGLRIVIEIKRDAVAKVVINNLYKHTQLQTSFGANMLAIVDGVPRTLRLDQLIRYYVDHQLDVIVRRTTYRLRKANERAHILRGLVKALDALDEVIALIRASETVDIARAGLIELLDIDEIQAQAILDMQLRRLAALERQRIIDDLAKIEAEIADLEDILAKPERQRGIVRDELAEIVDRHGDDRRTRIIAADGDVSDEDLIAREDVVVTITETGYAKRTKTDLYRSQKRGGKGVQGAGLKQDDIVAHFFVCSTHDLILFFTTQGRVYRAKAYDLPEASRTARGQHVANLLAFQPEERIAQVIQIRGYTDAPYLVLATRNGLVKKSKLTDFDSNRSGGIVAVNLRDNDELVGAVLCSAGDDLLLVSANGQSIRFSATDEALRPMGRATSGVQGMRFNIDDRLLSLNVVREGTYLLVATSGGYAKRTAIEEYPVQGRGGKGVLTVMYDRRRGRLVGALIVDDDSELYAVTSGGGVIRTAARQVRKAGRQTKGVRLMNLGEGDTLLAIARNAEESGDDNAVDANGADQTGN
Chain of M. tuberculosis DNA gyrase (P9WG45 whole entry): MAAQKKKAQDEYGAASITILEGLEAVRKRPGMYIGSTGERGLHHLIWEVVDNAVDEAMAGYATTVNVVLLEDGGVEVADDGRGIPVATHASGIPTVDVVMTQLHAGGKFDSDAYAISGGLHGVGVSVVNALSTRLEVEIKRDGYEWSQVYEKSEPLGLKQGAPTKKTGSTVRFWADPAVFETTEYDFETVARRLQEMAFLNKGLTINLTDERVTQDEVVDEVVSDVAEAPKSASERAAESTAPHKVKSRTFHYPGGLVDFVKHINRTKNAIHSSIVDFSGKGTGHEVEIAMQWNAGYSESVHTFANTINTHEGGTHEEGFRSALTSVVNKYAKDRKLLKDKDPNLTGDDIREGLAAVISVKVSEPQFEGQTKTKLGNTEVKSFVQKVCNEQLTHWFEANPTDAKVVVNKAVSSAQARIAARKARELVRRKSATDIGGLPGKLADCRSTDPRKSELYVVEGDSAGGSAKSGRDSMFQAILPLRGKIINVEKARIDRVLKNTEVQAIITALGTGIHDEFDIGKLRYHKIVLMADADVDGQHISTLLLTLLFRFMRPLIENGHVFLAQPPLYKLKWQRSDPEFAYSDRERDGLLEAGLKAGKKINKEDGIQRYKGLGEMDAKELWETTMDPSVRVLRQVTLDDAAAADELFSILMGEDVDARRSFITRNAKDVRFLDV

M. tuberculosis H37Rv = test: microbe, parasite or virus in culture; type: cell-based; conditions: for MIC: Mycobacterium tuberculosis
[3] = Acute toxicity in healthy female CD-1 mice after a single oral treatment; type: in vivo; conditions: for Macroscopic autopsy: Observations: sacrifice at end of study
Experimental: The aim of this study was to evaluate the acute toxicity of two new compounds (Quin 18 and Quin 19) in healthy female CD-1 after a single oral treatment at D0.
Toxicity of treatment was evaluated by monitoring of animals (general signs of pharmacologic and toxicity effects, morbidity, mortality and evident signs of toxicity, as well as twice-weekly monitoring for clinical signs and body weight) until the end of the experiment (D14). At the end of the experiment, animals were sacrificed and macroscopic autopsy was performed.
Mice of each group were administered by per os (PO) injection at 10 ml/kg according to the standard operating procedure No. TEC-078. The recommended volume for per os (PO) administration in mice is 10 ml/kg.
Morbidity, mortality and evident signs of toxicity of mice were considered daily from D0 until the end of the experiment (D14 or D15).
Monitoring of mice for detailed behavioral and clinical observations was performed twice a week from D0 until the end of the experiment (D14 or D15) according to the standard operating procedures No. TEC-192.
Body weight of mice was monitored at D1, D2 and then twice a week until the end of the experiment (D14 or D15) according to the standard operating procedures No. TEC-108. Weight loss was assessed against the starting weight of each mouse at D0.
During the course of the experiment, animals were sacrificed if any of the following occurs: • Signs of suffering (cachexia, weakening, difficulty to move or to eat), • Compound toxicity (hunching, convulsions), • 25% body weight loss on any day. Sacrifice of Animals
At D14 or D15, animals were be sacrificed by CO2 inhalation and a macroscopic autopsy was performed.

CCCCCCCCN1CCN(c2c(F)cc3c(=O)c(C(=O)O)cn(C4CC4)c3c2OC)CC1 [Quin 18, 1-cyclopropyl-6-fluoro-8-methoxy-7-(4-octylpiperazin-1-yl)-4-oxo-1,4-dihydroquinoline-3-carboxylic acid]
Mice weight ([1]; 25 mg/kg/j, Gavage): 19.4 ± 0.9
Spleen weight ([1]; 25 mg/kg/j, Gavage): 258.6 ± 155 mg
Survival: No. death ([1]; 25 mg/kg/j, Gavage, D1 to D28, 5 days a week): 0
Mice weight ([1]; 25 mg/kg/j, Intravenously): 20 ± 1
Spleen weight ([1]; 25 mg/kg/j, Intravenously): 391 ± 89.7 mg
Survival: No. death ([1]; 25 mg/kg/j, Intravenously): 0
Mice weight ([1]; 50 mg/kg/j, Gavage): 20 ± 1.6
Spleen weight ([1]; 50 mg/kg/j, Gavage): 231 ± 63.3 mg
Survival: No. death ([1]; 50 mg/kg/j, Gavage): 0
Mice weight ([1]; 100 mg/kg/j, Gavage): 19.4 ± 1.5
Spleen weight ([1]; 100 mg/kg/j, Gavage): 210 ± 104.1 mg
Survival: No. death ([1]; 100 mg/kg/j, Gavage): 0
Mice weight ([1]; 100 mg/kg/j, Intravenously): 20 ± 1.1
Spleen weight ([1]; 100 mg/kg/j, Intravenously): 400 ± 7.7 mg
Survival: No. death ([1]; 100 mg/kg/j, Intravenously): 1
Mice weight ([1]; 150 mg/kg/j, Gavage): 20.3 ± 0.8
Spleen weight ([1]; 150 mg/kg/j, Gavage): 239.8 ± 129.3 mg
Survival: No. death ([1]; 150 mg/kg/j, Gavage): 0
Efficacy in a mouse model of tuberculosis (in words) ([1]; given orally): outstanding efficacy
Spleen weights compared with untreated group (in words) ([1]; treated intravenously): spleen weights similar than the untreated group
Survival compared with untreated group (in words) ([1]; whatever the dosage (25, 50, 100 and 150 mg/kg/d) and the administration route): statistically superior to untreated group
IC50 [2]: 195 µM
antibacterial activity against wild-type M. tuberculosis strain (in words) (M. tuberculosis H37Rv; H37Rv): high antibacterial activity
MIC (M. tuberculosis H37Rv; H37RV, Table 3, read-out: MIC M. tuberculosis H37Rv): 0.12 µM (≈ 0.0568 µg/mL)
MIC (M. tuberculosis H37Rv; H37Rv, Table 2, read-out: MIC (M. tuberculosis) WT): ≤ 0.12 µM
Loss of body weight (in words) ([3]; Group A1: 100 mg/kg PO Q1Dx1): did not exhibited any loss of body weight
Tolerance (in words) ([3]; Group A1: 100 mg/kg PO Q1Dx1, polysorbate 80 0.4%, with sonication): well tolerated
Mean body weight (MBW) ([3]; Group A1: 100 mg/kg PO Q1Dx1, with sonication, D1): 31.33 ± 0.8 g
Mean body weight (MBW) ([3]; Group A1: 100 mg/kg PO Q1Dx1, with sonication, D2): 31.2 ± 0.7 g
Mean body weight (MBW) ([3]; Group A1: 100 mg/kg PO Q1Dx1, with sonication, D3): 30.3 ± 0.53 g
Mean body weight (MBW) ([3]; Group A1: 100 mg/kg PO Q1Dx1, with sonication, D4): 30.47 ± 0.78 g
Mean body weight (MBW) ([3]; Group A1: 100 mg/kg PO Q1Dx1, with sonication, D7): 31.63 ± 0.49 g
Mean body weight (MBW) ([3]; Group A1: 100 mg/kg PO Q1Dx1, with sonication, D11): 32.3 ± 1.37 g
Mean body weight (MBW) ([3]; Group A1: 100 mg/kg PO Q1Dx1, with sonication, D14): 31.77 ± 0.76 g
Macroscopic autopsy: Observations ([3]; Group A1: 100 mg/kg PO Q1Dx1): NTR
Mean body weight (MBW) ([3]; Group A1: polysorbate 80 0.4%, 10 mg/ml with sonication, 100 mg/kg PO Q1Dx1, D0, 100 mg/kg): 31.5 ± 1.48 g
Loss of body weight (in words) ([3]; Group A2: 200 mg/kg PO Q1Dx1): did not exhibited any loss of body weight
Tolerance (in words) ([3]; Group A2: 200 mg/kg PO Q1Dx1, polysorbate 80 0.4%, with sonication): well tolerated
Mean body weight (MBW) ([3]; Group A2: 200 mg/kg PO Q1Dx1, with sonication, D1): 31.13 ± 1.01 g
Mean body weight (MBW) ([3]; Group A2: 200 mg/kg PO Q1Dx1, with sonication, D2): 30.27 ± 0.74 g
Mean body weight (MBW) ([3]; Group A2: 200 mg/kg PO Q1Dx1, with sonication, D3): 30.7 ± 0.44 g
Mean body weight (MBW) ([3]; Group A2: 200 mg/kg PO Q1Dx1, with sonication, D7): 31.67 ± 0.49 g
Mean body weight (MBW) ([3]; Group A2: 200 mg/kg PO Q1Dx1, with sonication, D10): 31.73 ± 0.95 g
Mean body weight (MBW) ([3]; Group A2: 200 mg/kg PO Q1Dx1, with sonication, D14): 32.6 ± 1.35 g
Macroscopic autopsy: Observations ([3]; Group A2: 200 mg/kg PO Q1Dx1): NTR
Mean body weight (MBW) ([3]; Group A2: polysorbate 80 0.4%, 20 mg/ml with sonication, 200 mg/kg PO Q1Dx1, D0, 200 mg/kg): 30.2 ± 1.15 g
Loss of body weight (in words) ([3]; Group A3: 100 mg/kg PO Q1Dx1): did not exhibited any loss of body weight
Tolerance (in words) ([3]; Group A3: 100 mg/kg PO Q1Dx1, polysorbate 80 0.4%): well tolerated
Mean body weight (MBW) ([3]; Group A3: 100 mg/kg PO Q1Dx1, without sonication, D1): 29.8 ± 1.05 g
Mean body weight (MBW) ([3]; Group A3: 100 mg/kg PO Q1Dx1, without sonication, D2): 30.4 ± 1.25 g
Mean body weight (MBW) ([3]; Group A3: 100 mg/kg PO Q1Dx1, without sonication, D4): 30 ± 1.01 g
Mean body weight (MBW) ([3]; Group A3: 100 mg/kg PO Q1Dx1, without sonication, D7): 31.33 ± 0.74 g
Mean body weight (MBW) ([3]; Group A3: 100 mg/kg PO Q1Dx1, without sonication, D11): 32.3 ± 2.02 g
Mean body weight (MBW) ([3]; Group A3: 100 mg/kg PO Q1Dx1, without sonication, D15): 32.17 ± 1.94 g
Macroscopic autopsy: Observations ([3]; Group A3: 100 mg/kg PO Q1Dx1): NTR
Mean body weight (MBW) ([3]; Group A3: polysorbate 80 0.4%, 10 mg/ml without sonication, 100 mg/kg PO Q1Dx1, D0, 100 mg/kg): 29.9 ± 1.25 g
Loss of body weight (in words) ([3]; Group A4: 200 mg/kg PO): did not exhibited any loss of body weight
Mean body weight (MBW) ([3]; Group A4: 200 mg/kg PO 2Q1Dx1, without sonication, D1): 29.73 ± 1.22 g
Mean body weight (MBW) ([3]; Group A4: 200 mg/kg PO 2Q1Dx1, without sonication, D2): 30.2 ± 1.31 g
Mean body weight (MBW) ([3]; Group A4: 200 mg/kg PO 2Q1Dx1, without sonication, D5): 30 ± 1.45 g
Mean body weight (MBW) ([3]; Group A4: 200 mg/kg PO 2Q1Dx1, without sonication, D9): 30.93 ± 3.04 g
Mean body weight (MBW) ([3]; Group A4: 200 mg/kg PO 2Q1Dx1, without sonication, D13): 31.73 ± 2.64 g
Mean body weight (MBW) ([3]; Group A4: 200 mg/kg PO 2Q1Dx1, without sonication, D14): 31.33 ± 1.63 g
Macroscopic autopsy: Observations ([3]; Group A4: 200 mg/kg PO 2Q1Dx1): NTR
Tolerance (in words) ([3]; Group A4: 200 mg/kg PO, polysorbate 80 0.4%): well tolerated
Mean body weight (MBW) ([3]; Group A4: polysorbate 80 0.4%, 10 mg/ml without sonication, 200 mg/kg PO 2Q1Dx1 (2 hours between the 2 injections), D0, 200 mg/kg): 29.5 ± 0.89 g
Autopsy, macroscopic observations (in words) ([3]; all treated groups): No particular sign was observed
Dose up to which well tolerated (maximal solubility) ([3]; in polysorbate 80 0.4%, PO, female mice): up to 200 mg/kg
Signs of toxicity at the dose levels tested (in words) ([3]; mice): no signs of toxicity
